Laboratory results taken from ChEMBL document CHEMBL3301361, “Experimental in vitro DMPK and physicochemical data on a set of publicly disclosed compounds”.
Converted amounts (≈) assume the structure as drawn. “And” between values parts separate entries of the source, which are not always exact repeats. Equal values may be shown once.

Legend:
[1] = physchem
[2] = physchem; remark: listed apart in the source
[3] = in vitro; conditions: human
[4] = physchem; remark: listed apart in the source
[5] = in vitro; conditions: SD, HW or BN, rat, plasma
[6] = buffer, pH 7.4
[7] = in vitro; conditions: Beagle, dog, plasma
[8] = in vitro; conditions: hepatocytes
[9] = in vitro; conditions: human, hepatocytes
[10] = in vitro; conditions: human, plasma
[11] = physchem; conditions: octan-1-ol/water
[12] = physchem; remark: listed apart in the source
[13] = in vitro; conditions: Dunkin Hartley, guinea pig, plasma
[14] = in vitro; conditions: mouse, plasma
[15] = physchem; conditions: pH 7.4 buffer

Work on O=C(O)c1ccccc1N1CCC(CN2CCC(Oc3ccc(Cl)c(Cl)c3)CC2)CC1 yielded a pKa [1] of 7.7, a pKa [2] of 8.9 and a microsomal CLint ([3]; liver microsomes) of 8 µL/min/mg. For the same molecule, the pKa [4] was 3.2.
In the case of CCS(=O)(=O)c1ccc(-c2cc(Cl)ccc2OCC(=O)O)c(F)c1, the fraction unbound at 5 h [5] is reported as 0.0568, the microsomal CLint ([3]; microsomes) is reported as < 3 µL/min/mg and the LogD7.4 [6] is reported as -0.92. For the same molecule, the fraction unbound at 5 h [7] was 0.0084, the hepatocyte CLint [8] was 4.24 µL/min/1e6 cells and the hepatocyte CLint [9] was < 3 µL/min/1e6 cells. For the same molecule, the pKa [4] was 3 and the fraction unbound at 5 h ([10]; PPB) was 0.0488.
With CS(=O)(=O)c1ccc(-c2cc(C(F)(F)F)ccc2OCC(=O)O)c(Cl)c1 the fraction unbound at 5 h [5] was 0.0499, the LogD7.4 [6] was -0.52 and the fraction unbound at 5 h ([10]; PPB) was 0.0418.
CN1Cc2c(N)cccc2C(c2ccccc2)C1 (stereo not drawn) [NOMIFENSINE] gave a LogD7.4 [6] of 2.11 and a logD ([11]; pH 7.4, LogD7.4) of 2.08.
In the case of CO[C@@]1(NC(=O)CSCC#N)C(=O)N2C(C(=O)O)=C(CSc3nnnn3C)CS[C@@H]21 [CEFMETAZOLE], the pKa [12] is reported as 10.2, the pKa [4] is reported as 3.37 and the fraction unbound at 5 h ([10]; PPB) is reported as 0.194.
With Clc1ccc(COC(Cn2ccnc2)c2ccc(Cl)cc2Cl)cc1 (stereo not drawn) [ECONAZOLE] the LogD7.4 [6] was 2.54.
For CCS(=O)(=O)c1cccc(-c2cc(C(F)(F)F)ccc2OCC(=O)O)c1, the LogD7.4 [6] was -0.66.
For O=C(O)c1cccc(CN2CCC(CN3CCC(Oc4ccc(Cl)c(Cl)c4)CC3)CC2)c1, the pKa [1] was 7.7, the pKa [2] was 9.6 and the microsomal CLint ([3]; microsomes) was < 3 µL/min/mg. For the same molecule, the pKa [4] was 3.5.
Work on CN1CCN(CCCN2c3ccccc3Sc3ccc(Cl)cc32)CC1 [PROCHLORPERAZINE] yielded a LogD7.4 [6] of 3.92.
In the case of COc1ccnc(CSc2nc3ccccc3[nH]2)c1, the pKa [1] is reported as 3, the pKa [2] is reported as 5.3 and the microsomal CLint ([3]; liver microsomes) is reported as 86 µL/min/mg. For the same molecule, the hepatocyte CLint [8] was > 150 µL/min/1e6 cells and the logD ([11]; pH 7.4, LogD7.4) was 2.89.
For CN1CCN(C2=Nc3cc(Cl)ccc3Nc3ccccc32)CC1 [CLOZAPINE], the pKa [1] was 3.99, the fraction unbound at 5 h [5] was 0.0647 and the fraction unbound at 5 h [7] was 0.0736. It also gave a logD ([11]; pH 7.4) of 3.08, a fraction unbound at 5 h [10] of 0.0521 and a fraction unbound at 5 h [13] of 0.0872.
With COc1cc(N)c(Cl)cc1C(=O)NC1CCN(CCCOc2ccc(F)cc2)CC1OC (stereo not drawn) [CISAPRIDE] the LogD7.4 [6] was 3.56.
With N#Cc1ccc(C[C@@H](C(=O)O)N2CCC(CN3CCC(Oc4ccc(Cl)c(Cl)c4)CC3)CC2)cc1 the pKa [1] was 7, the pKa [2] was 8.9 and the fraction unbound at 5 h [5] was 0.0968. The fraction unbound at 5 h [7] was 0.166, the fraction unbound at 5 h [14] was 0.197 and the fraction unbound at 5 h ([10]; PPB) was 0.0521. It also gave a solubility thermodynamic [15] of 53.7 µM (≈ 27.7 µg/mL).
For CN1CCC[C@@H]1CCO[C@](C)(c1ccccc1)c1ccc(Cl)cc1 [CLEMASTINE], the LogD7.4 [6] was 3.48 and the logD ([11]; pH 7.4, LogD7.4) was 3.04.
O=C(O)c1cc(O)cc(Cl)c1 showed a pKa [12] of 8.57 and a pKa [4] of 3.81.
For CN(C)CCn1nnnc1SCC1=C(C(=O)O)N2C(=O)[C@@H](NC(=O)Cc3csc(N)n3)[C@H]2SC1 [CEFOTIAM], the pKa [1] was 4.61, the pKa [2] was 8.18 and the pKa [4] was 2.41.
In the case of O=C(O)[C@@H](Cc1ccccc1)N1CCC(CN2CCC(Oc3ccc(Cl)c(Cl)c3)CC2)CC1, the pKa [1] is reported as 7, the pKa [2] is reported as 9.3 and the microsomal CLint ([3]; liver microsomes) is reported as < 3 µL/min/mg. It also gave a fraction unbound at 5 h ([10]; PPB) of 0.314.
For Cc1nnc(C(C)C)n1[C@H]1C[C@H]2CC[C@@H](C1)N2CC[C@H](NC(=O)C1CCC(F)(F)CC1)c1ccccc1 [MARAVIROC], the pKa [1] was 2.4 and the pKa [2] was 9.66.
For O=C(O)CCCCCCCC(=O)O [AZELAIC ACID], the pKa [12] was 5.87 and the pKa [4] was 3.49.
Work on OC(Cn1cncn1)(Cn1cncn1)c1ccc(F)cc1F [FLUCONAZOLE] yielded a pKa [1] of 2.18, a pKa [2] of 2.72 and a fraction unbound at 5 h [10] of 0.858.
Work on CCN(CC)c1ccc(-c2nn3c(-c4n[nH]c5c4CCC5)nnc3s2)cc1 yielded a LogD7.4 [6] of 3.37.
With CC(C)(C)NC[C@H](O)COc1nsnc1N1CCOCC1 [TIMOLOL] the LogD7.4 [6] was -0.35 and -0.22, the hepatocyte CLint [8] was > 150 µL/min/1e6 cells and the hepatocyte CLint [9] was 4.57 µL/min/1e6 cells. For the same molecule, the fraction unbound at 5 h ([10]; PPB) was 0.597.
With O=c1[nH]c2c(O)ccc([C@@H](O)CNCCc3cccc(CN4CCCC4)c3)c2s1 the LogD7.4 [6] was -0.28.
COc1ccc(CCN2CCC(Nc3nc4ccccc4n3Cc3ccc(F)cc3)CC2)cc1 [ASTEMIZOLE] showed a pKa [1] of 6.33, a pKa [2] of 9.62 and a microsomal CLint ([3]; liver microsomes) of 66 µL/min/mg. For the same molecule, the fraction unbound at 5 h ([10]; PPB) was 0.0262 and the solubility thermodynamic [15] was 5.6 µM (≈ 2.57 µg/mL).
In the case of O=C(O)C(c1ccccc1)N1CCC(CN2CCC(Oc3ccc(Cl)c(Cl)c3)CC2)CC1 (stereo not drawn), the pKa [1] is reported as 7.7, the pKa [2] is reported as 9.6 and the microsomal CLint ([3]; microsomes) is reported as < 3 µL/min/mg. For the same molecule, the pKa [4] was 3 and the logD ([11]; pH 7.4, LogD7.4) was 2.17.
Work on O=C1CC2(CCCC2)CC(=O)N1CCCCN1CCN(c2ncccn2)CC1 [BUSPIRONE] yielded a pKa [1] of 5.48, a pKa [2] of 7.61 and a microsomal CLint ([3]; liver microsomes) of 116 µL/min/mg. For the same molecule, the hepatocyte CLint [9] was 38.9 µL/min/1e6 cells and the solubility thermodynamic [15] was 1450 µM (≈ 557 µg/mL).
For O=C(NO)c1ccccc1O [SALICYLHYDROXAMIC ACID], the pKa [12] was 9.9, the microsomal CLint ([3]; liver microsomes) was < 3 µL/min/mg and the pKa [4] was 7.5.
In the case of CC/C(=C(/c1ccc(O)cc1)c1ccc(/C=C/C(=O)O)cc1)c1ccccc1, the pKa [12] is reported as 9.55, the microsomal CLint ([3]; liver microsomes) is reported as 33.9 µL/min/mg and the hepatocyte CLint [8] is reported as 69.2 µL/min/1e6 cells. The hepatocyte CLint [9] was 55 µL/min/1e6 cells and the solubility thermodynamic [15] was 1 µM (≈ 0.37 µg/mL).
